Six substances from patent US5039792A, “Allatostatins which inhibit insect juvenile hormone biosynthesis” (Oregon State University, priority 1989, dated 1991) can be followed below.

Ends that are not written are not given here.

The test system of this assay is juvenile hormone III synthesis by corpora allata. Description: in vitro radiochemical assay for inhibition of juvenile hormone III synthesis and release by corpora allata. The class given is cell-based, Diploptera punctata. Conditions: for IC50: inhibition of juvenile hormone synthesis and release, two hour in vitro radiochemical assay, corpora allata from ten day old pregnant females, read-out: Bioactivity as I.C.50 (Day 10 Donors). As to the method: This assay for inhibition of JH synthesis is conducted as described by G. E. Pratt and J. R. Finney, in Crop Protection Agents: their biological evaluation, N. R. McFarlane, Ed. (Academic Press, New York, 1976)) except it is modified by the use of rapid partition instead of thin layer chromatography to isolate the newly synthesized JH and also modified by a reduction of incubation time to two hours.
Biological activities are determined for all RP18.cndot.HPLC fractions. […] Juvenile hormone III is synthesized de novo from acetyl-CoA through the classical isoprenoid pathway to farnesyl pyrophosphate (D. A. Schooley and F. C. Baker, in Comprehensive Insect Physiology, Biochemistry and Pharmacology, G. A. Kerkut and L. I. Gilbert, Eds. (Pergamon, Oxford, 1985) Vol. 7, pp. 363-389) and the enzymatic conversion of […] to JH can be stimulated in vitro by exogenous 2E,6E […] (Aldrich, Milwaukee, Wis.) which presumably alleviates a limitation in the biosynthetic flux (R. Feyereisen, J. Koener, S. S. Tobe, in Juvenile Hormone Biochemistry, G. E. Pratt and G. T. Brooks, Eds. (Elsevier, Amsterdam, 1981), pp. 81-92). […] The target of this allatostatin is therefore located early in the biosynthetic pathway. Juvenile hormone synthesis is determined at the end of two hours in these assays and bioactivity is measured as the ability of the peptide to inhibit biosynthesis of the JHIII. The peptide yields as determined from sequence analysis correspond to approximately 35 fmole/brain-complex. This is approximately one third the yield of the smaller known allatostatins (see G. E. Pratt et al. Biochem. & Biophys. Res. Commun. 163:1243 (1989) and A. P. Woodhead et al. Prod. Natl. Acad. Sci. 86:5997 (1989).
The inhibition of JH III synthesis and release by corpora allata (CA) from ten day old pregnant females is measured by an in vitro radiochemical assay. The three hour assay for inhibitors of JH synthesis (G. E. Pratt and J. R. Finney, in Crop Protection Agents: their biological evaluation, N. R. McFarlane, Ed. (Academic Press, New York, 1976) pp. 113-132) is modified by the use of rapid partition instead of thin layer chromatography to isolate the newly synthesized JH III (R. Feyereisen and S. S. Tobe, Anal. Biochem. 111: 372 (1981)) and modified by a reduction of incubation time to two hours. In each assay, run in seven replicates, one pair of CA was incubated with 50 μM (methyl-^3 H) methionine and putative inhibitor in 0.1 mL of TC199 containing 2% Ficoll, 0.1% bovine serum albumin and 0.03% bacitracin. The test glands show maximum sensitivity to the allatostatic action of brain extracts. R. Feyereisen and D. E. Farnsworth, Insect Biochem. 17,939 (1987); S. M. Rankin and B. Stay, J. Insec. Physiol. 33, 551 (1987).

Turning to RLPVYNFGL-NH2 [RLPVYNFGL-NH2], the IC50 was 270 nM.
The same measure, in the same setting: for “Ac-AYSYVSEYKRLPVYNFGL-NH2 [acetyl-AYSYVSEYKRLPVYNFGL-NH2]” the value was 1.5 nM.
With LRVYNFGL-NH2 [LRVYNFGL-NH2], the IC50 turned out to be 118 nM.
On to LPVYNFGL-NH2 [LPVYNFGL-NH2], for which the IC50 was found to be 50 nM.
For Ac-RLPVYNFGL-NH2 [acetyl-RLPVYNFGL-NH2], the IC50 came to 30 nM.
In the case of “AYSYVSEYKRLPVYNFGL-NH2 [AYSYVSEYKRLPVYNFGL-NH2]”, the IC50 was found to be 0.3 nM. In addition, the “inhibition of JH III biosynthesis in dose-response assays in the presence of farnesol” value (in the presence of 200 μM farnesol, JH synthesis determined at the end of two hours) is given as “totally ineffective”. The “biological activity in the in vitro assay (inhibition of JH synthesis)” value (in vitro radiochemical assay, corpora allata) is on record as “biologically active”.
